For one series, the species on record is Homo sapiens. As to the kind of experiment: Inhibition of N-terminal HSP90 (unknown origin) at 10 uM by AlphaLISA assay.
The next series deals with HEK293. Put plainly: Cytotoxicity against HEK293 cells assessed as reduction in cell viability at 10 uM measured after 72 hrs by CellTiter 96 Aqueous One Solution Cell Proliferation Assay. Format: toxicity, cell-based. The conditions noted are these: human, hek293, 72 h.
Series [1] has as its system JIMT-1. As to the kind of experiment: Antiproliferative activity against human JIMT-1 cells assessed as inhibition of cell viability at 10 uM measured after 72 hrs by CellTiter 96 Aqueous One Solution Cell Proliferation Assay. Format: functional, cell-based.
In series [2] the test system is BT-474. Put plainly: Antiproliferative activity against human BT-474 cells assessed as inhibition of cell viability at 10 uM measured after 72 hrs by CellTiter 96 Aqueous One Solution Cell Proliferation Assay. Format: functional, cell-based.
Series [3] deals with BT-474. Put plainly: Antiproliferative activity against human BT-474 cells assessed as inhibition of cell viability at 10 uM measured after 72 hrs by CellTiter 96 Aqueous One Solution Cell Proliferation Assay relative to control. Format: functional.
For series [4], the system named is JIMT-1. As to the kind of experiment: Antiproliferative activity against human JIMT-1 cells assessed as inhibition of cell viability at 10 uM measured after 72 hrs by CellTiter 96 Aqueous One Solution Cell Proliferation Assay relative to control. Format: functional.
Another series has as its target T1, CYP1A2 (Homo sapiens, UniProt P05177).
T1 sequence (P05177 whole entry): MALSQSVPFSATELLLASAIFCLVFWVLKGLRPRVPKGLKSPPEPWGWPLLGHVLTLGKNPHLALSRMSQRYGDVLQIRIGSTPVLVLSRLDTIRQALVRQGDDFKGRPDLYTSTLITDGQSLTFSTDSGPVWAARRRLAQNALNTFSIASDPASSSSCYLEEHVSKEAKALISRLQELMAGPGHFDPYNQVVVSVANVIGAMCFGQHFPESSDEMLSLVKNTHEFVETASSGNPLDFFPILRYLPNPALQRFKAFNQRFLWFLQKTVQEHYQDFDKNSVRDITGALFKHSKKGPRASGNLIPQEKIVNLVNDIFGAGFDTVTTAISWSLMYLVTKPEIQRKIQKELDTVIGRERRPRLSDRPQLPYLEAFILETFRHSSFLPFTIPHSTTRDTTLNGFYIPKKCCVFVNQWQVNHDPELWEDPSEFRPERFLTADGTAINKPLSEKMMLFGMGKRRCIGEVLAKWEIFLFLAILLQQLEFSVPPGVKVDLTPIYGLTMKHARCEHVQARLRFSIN
As to the kind of experiment: Inhibition of CYP1A2 (unknown origin) at 10 uM relative to control. Format: ADME.

The next series concerns the target CYP2C9 (Homo sapiens, UniProt P11712). As to the kind of experiment: Inhibition of CYP2C9 (unknown origin) at 10 uM relative to control. Format: ADME.
Another series has as its target CYP3A4 (Homo sapiens, UniProt P08684). Put plainly: Inhibition of CYP3A4 (unknown origin) at 10 uM relative to control. Format: ADME.
Another series addresses CYP2C19 (Homo sapiens, UniProt P33261). As to the kind of experiment: Inhibition of CYP2C19 (unknown origin) at 10 uM relative to control. Format: ADME.

The text below walks through data of ChEMBL document CHEMBL5608181, “Discovery of indazole inhibitors for heat shock protein 90 as anti-cancer agents” (Eur J Med Chem, 2024).

Active and inactive are the calls of the source. No cut-off for these calls is given here.

The inhibition is the change of the read-out against control, counted positive when it falls.

CYP3A4, sequence (P08684 whole entry): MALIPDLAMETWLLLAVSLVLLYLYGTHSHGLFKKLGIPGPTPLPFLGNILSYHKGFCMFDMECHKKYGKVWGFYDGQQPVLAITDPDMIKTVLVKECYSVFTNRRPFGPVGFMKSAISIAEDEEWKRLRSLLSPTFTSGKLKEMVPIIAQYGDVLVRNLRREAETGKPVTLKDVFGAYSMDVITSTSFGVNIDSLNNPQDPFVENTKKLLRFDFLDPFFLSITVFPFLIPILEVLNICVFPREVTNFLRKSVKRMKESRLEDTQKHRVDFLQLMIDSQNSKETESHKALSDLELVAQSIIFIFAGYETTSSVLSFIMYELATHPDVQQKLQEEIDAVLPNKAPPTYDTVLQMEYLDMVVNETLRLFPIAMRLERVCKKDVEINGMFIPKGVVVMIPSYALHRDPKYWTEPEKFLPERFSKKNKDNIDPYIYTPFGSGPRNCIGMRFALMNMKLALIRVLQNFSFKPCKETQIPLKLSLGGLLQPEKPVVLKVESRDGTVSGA
CYP2C19, sequence (P33261 whole entry): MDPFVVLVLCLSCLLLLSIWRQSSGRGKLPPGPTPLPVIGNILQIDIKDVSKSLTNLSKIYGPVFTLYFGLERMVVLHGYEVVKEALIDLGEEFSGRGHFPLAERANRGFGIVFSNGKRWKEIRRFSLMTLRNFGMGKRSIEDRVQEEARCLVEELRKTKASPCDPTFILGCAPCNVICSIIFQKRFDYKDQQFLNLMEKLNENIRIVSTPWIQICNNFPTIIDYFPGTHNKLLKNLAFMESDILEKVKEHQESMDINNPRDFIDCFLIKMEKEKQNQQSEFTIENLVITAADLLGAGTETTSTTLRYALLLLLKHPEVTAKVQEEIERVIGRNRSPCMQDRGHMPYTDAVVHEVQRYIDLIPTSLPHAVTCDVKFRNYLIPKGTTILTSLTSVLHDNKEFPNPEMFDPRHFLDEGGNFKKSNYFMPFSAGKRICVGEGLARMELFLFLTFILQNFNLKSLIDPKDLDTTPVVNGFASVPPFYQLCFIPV
CYP2C9, sequence (P11712 whole entry): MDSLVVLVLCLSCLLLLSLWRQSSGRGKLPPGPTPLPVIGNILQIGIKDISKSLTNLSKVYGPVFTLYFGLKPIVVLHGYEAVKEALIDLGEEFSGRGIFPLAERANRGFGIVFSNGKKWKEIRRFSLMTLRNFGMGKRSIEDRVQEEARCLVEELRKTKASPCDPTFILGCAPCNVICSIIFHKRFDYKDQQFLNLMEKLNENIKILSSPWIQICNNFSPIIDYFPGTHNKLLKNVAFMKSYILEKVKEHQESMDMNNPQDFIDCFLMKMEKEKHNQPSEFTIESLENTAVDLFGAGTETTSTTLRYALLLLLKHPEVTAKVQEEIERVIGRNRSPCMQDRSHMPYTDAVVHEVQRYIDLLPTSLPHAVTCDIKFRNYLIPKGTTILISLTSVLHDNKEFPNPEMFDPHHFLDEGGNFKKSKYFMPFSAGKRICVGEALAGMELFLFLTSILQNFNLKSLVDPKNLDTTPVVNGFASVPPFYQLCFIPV

On to `CC(C)c1cc(C(=O)N2Cc3ccc(CN4CCN(C)CC4)cc3C2)c(O)cc1O`, for which, in the series filed under Homo sapiens, the inhibition result was “Active”.

In the case of `COCCn1cc(NC(=O)c2ccc3c(c2OC)C=CC(C)(C)O3)c2cccnc21`, in the series on HEK293, the Activity entry is on record as “Toxic”. The result in the series on JIMT-1 [1] and in the series with BT-474 [2] was Active.

In the case of `COCCn1nc(NC(=O)c2ccc3c(c2OC)C=CC(C)(C)O3)c2ccccc21`, the inhibition at 10 µM in the series on BT-474 [3] and in the series with JIMT-1 [4] was above 50% throughout. Besides, in the series with HEK293, the Activity result was “Toxic”.

On to `CC(=O)N1CCN(c2ccc(OCC3COC(Cn4ccnc4)(c4ccc(Cl)cc4Cl)O3)cc2)CC1` (stereo not drawn) [KETOCONAZOLE], for which the inhibition at 10 µM against CYP1A2 is above 100%; at CYP2C9 it was 96.8%; at CYP3A4, 32%; at CYP2C19, above 100%.

For the molecule `COCCCn1nc(NC(=O)c2ccc3c(c2OC)C=CC(C)(C)O3)c2ccccc21`, in the series on BT-474 [3], the inhibition at 10 µM is above 50%.

Consider `CO[C@@H]1[C@@H](OC(N)=O)[C@@H](O)[C@H](Oc2ccc3c(O)c(NC(=O)c4ccc(O)c(CC=C(C)C)c4)c(=O)oc3c2C)OC1(C)C`, for which the inhibition entry in the series listed under Homo sapiens is “inactive”.
